Measured values as given in ChEMBL document CHEMBL1250451, “Mechanistic insights into a Ca2+-dependent family of alpha-mannosidases in a human gut symbiont” (Nat Chem Biol, 2010).
Activity calls are given as the source filed them. The rule behind the calls is not given here.

Key:
Format in all cases: protein assay
[1] = target: T1, Alpha-1,2-mannosidase (BT_2199) (Bacteroides thetaiotaomicron) (UniProt Q8A5N9); assay: Activity of Bacteroides thetaiotaomicron GH92 alpha-mannosidase GH92 alpha-mannosidase 2199 assessed as mannose release at 1 mM after 16 hrs by HPLC relative to untreated control after 16 hrs by HPLC
T1 sequence (whole entry): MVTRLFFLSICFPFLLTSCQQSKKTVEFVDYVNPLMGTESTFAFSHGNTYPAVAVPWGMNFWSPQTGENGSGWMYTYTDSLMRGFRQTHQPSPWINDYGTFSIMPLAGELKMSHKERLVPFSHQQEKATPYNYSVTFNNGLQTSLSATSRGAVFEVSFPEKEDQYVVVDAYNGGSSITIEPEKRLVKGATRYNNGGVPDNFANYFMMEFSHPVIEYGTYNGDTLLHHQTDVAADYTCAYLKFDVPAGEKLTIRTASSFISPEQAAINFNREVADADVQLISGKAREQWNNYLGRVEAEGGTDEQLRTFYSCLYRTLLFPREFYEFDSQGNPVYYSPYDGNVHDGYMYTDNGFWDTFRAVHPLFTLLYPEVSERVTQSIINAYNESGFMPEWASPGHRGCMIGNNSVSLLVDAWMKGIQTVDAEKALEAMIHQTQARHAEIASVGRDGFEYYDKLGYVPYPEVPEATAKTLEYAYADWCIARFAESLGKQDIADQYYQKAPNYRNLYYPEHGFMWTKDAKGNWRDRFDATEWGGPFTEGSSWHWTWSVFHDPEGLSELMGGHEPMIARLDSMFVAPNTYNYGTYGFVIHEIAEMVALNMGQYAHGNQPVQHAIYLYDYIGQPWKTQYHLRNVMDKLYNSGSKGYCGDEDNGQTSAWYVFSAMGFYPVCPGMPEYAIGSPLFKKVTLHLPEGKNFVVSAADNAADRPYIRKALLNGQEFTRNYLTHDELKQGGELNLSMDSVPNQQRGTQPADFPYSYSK

[2] = target: T2, Alpha-1,2-mannosidase, putative (BT_3773) (Bacteroides thetaiotaomicron) (UniProt Q8A193); assay: Activity of Bacteroides thetaiotaomicron GH92 alpha-mannosidase GH92 alpha-mannosidase 3773 assessed as mannose release at 1 mM after 16 hrs by HPLC relative to untreated control after 16 hrs by HPLC
T2 sequence (whole entry): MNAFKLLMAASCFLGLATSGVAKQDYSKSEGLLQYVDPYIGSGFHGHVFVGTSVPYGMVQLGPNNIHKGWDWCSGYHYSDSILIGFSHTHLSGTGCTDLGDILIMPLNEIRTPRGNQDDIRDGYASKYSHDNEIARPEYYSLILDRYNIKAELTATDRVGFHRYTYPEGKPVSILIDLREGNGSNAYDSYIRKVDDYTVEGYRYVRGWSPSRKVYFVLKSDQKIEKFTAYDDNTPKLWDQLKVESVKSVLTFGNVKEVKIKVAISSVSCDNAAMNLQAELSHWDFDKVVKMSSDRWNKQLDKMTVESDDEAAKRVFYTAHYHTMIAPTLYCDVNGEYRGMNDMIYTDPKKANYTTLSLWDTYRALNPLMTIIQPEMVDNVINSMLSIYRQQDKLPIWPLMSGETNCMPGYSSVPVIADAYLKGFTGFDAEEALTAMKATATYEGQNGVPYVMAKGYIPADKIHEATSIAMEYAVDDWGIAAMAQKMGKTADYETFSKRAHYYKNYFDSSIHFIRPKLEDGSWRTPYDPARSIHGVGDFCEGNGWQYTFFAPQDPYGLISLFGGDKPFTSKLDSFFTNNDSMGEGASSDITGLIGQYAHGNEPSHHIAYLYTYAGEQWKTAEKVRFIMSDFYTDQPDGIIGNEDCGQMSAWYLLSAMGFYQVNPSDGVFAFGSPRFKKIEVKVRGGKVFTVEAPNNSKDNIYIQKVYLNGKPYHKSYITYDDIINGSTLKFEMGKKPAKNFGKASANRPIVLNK

[3] = target: T3, Alpha-1,2-mannosidase (BT_3994) (Bacteroides thetaiotaomicron) (UniProt Q8A0M7); assay: Activity of Bacteroides thetaiotaomicron GH92 alpha-mannosidase GH92 alpha-mannosidase 3994 assessed as mannose release at 1 mM after 16 hrs by HPLC relative to untreated control after 16 hrs by HPLC
T3 sequence (whole entry): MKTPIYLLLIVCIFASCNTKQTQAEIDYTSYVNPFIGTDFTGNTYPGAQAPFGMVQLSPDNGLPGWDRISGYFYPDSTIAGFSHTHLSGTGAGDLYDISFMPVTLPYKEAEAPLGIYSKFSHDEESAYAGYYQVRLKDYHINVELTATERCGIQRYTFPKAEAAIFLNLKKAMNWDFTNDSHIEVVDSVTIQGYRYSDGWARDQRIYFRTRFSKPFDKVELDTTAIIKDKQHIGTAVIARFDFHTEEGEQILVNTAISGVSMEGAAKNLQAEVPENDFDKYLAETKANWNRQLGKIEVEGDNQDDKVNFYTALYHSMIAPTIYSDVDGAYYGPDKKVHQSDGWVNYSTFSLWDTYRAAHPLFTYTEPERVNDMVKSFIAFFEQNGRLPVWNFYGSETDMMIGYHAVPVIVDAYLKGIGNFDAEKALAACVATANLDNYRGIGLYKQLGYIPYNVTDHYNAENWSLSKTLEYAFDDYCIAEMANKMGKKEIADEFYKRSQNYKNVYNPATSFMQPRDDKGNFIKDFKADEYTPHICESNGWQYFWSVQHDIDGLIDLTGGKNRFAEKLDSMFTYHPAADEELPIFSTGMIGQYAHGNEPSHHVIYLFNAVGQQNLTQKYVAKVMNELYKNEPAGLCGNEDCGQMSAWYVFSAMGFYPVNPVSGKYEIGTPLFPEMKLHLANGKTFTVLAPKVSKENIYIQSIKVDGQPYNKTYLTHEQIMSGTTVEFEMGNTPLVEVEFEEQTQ

| Activity [1] | Activity [2] | Activity [3] | SMILES |
| --- | --- | --- | --- |
| 0.12% | 4.7% | 20% | OC[C@H]1O[C@H](O[C@H]2[C@H](O)[C@H](O)[C@@H](O)O[C@@H]2CO)[C@@H](O)[C@@H](O)[C@@H]1O |
| inactive | 0.0088% | inactive | OC[C@H]1O[C@H](OC[C@H]2O[C@H](O)[C@@H](O)[C@@H](O)[C@@H]2O)[C@@H](O)[C@@H](O)[C@@H]1O |
| 100% | 0.91% | inactive | OC[C@H]1O[C@H](O[C@H]2[C@@H](O)[C@H](O)[C@@H](CO)O[C@@H]2O)[C@@H](O)[C@@H](O)[C@@H]1O |
| inactive | – | – | OC[C@H]1O[C@H](O[C@@H]2[C@H](O)[C@@H](O)O[C@H](CO)[C@H]2O)[C@@H](O)[C@@H](O)[C@@H]1O |
